For one assay, the system named is platelet rich plasma. Description: Human platelet rich plasma assay (ADP induced platelet aggregation). The settings on record: read-out: Human PRP. In kind it is cell-based. The method, boiled down:
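Citrated platelet-rich plasma from aspirin-free healthy human donors was stirred at 37 °C and preincubated with compound for 1 min. Aggregation was then triggered with ADP (added as a 200 uM solution) and recorded photometrically for 3 min. Dose–response curves were built from % inhibition of the maximal saline-control response.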

In assay [1] the target is T1, Human fibrinogen receptor (αIIbβ3) (Homo sapiens, UniProt P05106+P08514).
T1 construct: Human fibrinogen receptor (αIIbβ3) was purified from outdated platelets; from tissue; host or cells: outdated human platelets
Description: Purified IIb/IIIa receptor assay (solid phase receptor assay, competition with biotinylated vitronectin). In kind it is binding. In short, it runs like this: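 Purified platelet αIIbβ3 coated overnight at 4 °C in TBS with 1.0 mM Ca/Mg/Mn, pH 7.4, then BSA-blocked. Compounds (top 1.0×10^−4 M) competed with 1 nM biotinylated vitronectin for 2 h at room temperature. Bound label detected by HRP anti-biotin, A450; values normalized to no-competitor controls, four-parameter fit.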

Assay [2] addresses T2, Human vitronectin receptor (αvβ3) (Homo sapiens, UniProt P05106+P06756).
T2 construct: Human vitronectin receptor (αvβ3) was purified from human placenta; from tissue; host or cells: human placenta
Description: Vitronectin adhesion assay (solid phase receptor assay, competition with biotinylated vitronectin). In kind it is binding. The method, boiled down:
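Purified human αvβ3 coated overnight at 4 °C in TBS with 1.0 mM Ca++, Mg++, Mn++, pH 7.4; compounds (top final 1.0×10^−4 M) competed with 1 nM biotinylated vitronectin for 2 h at room temperature. Bound ligand detected by HRP anti-biotin/OPD at A450; values normalized to no-competitor controls, four-parameter curve fit.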

For a further assay, the system named is M21 human melanoma cells. As to the kind of experiment: M21 melanoma cell adhesion assay (αvβ3-dependent adhesion to human fibrinogen-coated plates). In kind it is cell-based. The protocol:
M21 MELANOMA CELL ADHESION ASSASY
This assay involves an αvβ3-dependent adhesion of M21 human melanoma cells to human fibrinogen-coated plastic tissue culture dishes.
Fibrinogen was purified from human plasma. Fibronectin and plasminogen were eliminated from the preparation by passing the sample over gelatin-sepharose 4B and lysine-sepharose 4B resins, respectively. The fibrinogen is diluted to 10 μg/mL in coating buffer ([…] Tris-HCl, 150 mM NaCl, pH 7.4). 100 μL of diluted fibrinogen is added to each well of a 96-well Immulon 2 microtiter plate (Dynatech; Chantilly, Va.) and allowed to coat overnight at 4° C. Plates are blocked with 1% BSA (Miles/Pentex; Kankakee, Ill.) in adhesion buffer (Hank's balanced salt solution without Ca^++ or Mg^++ [HBSS−−], 50 mM Hepes, 1 mg/mL BSA, pH 7.4) for 1 hour at 37° C.
M21 human melanoma cells were provided by Dr. J. Smith, La Jolla Cancer Research Institute. M21 cells are harvested from tissue culture flasks by washing with HBSS−− and adding cell dissociation solution (Sigma) and incubating for 5 minutes at 37° C. Harvested cells are washed 3 times with adhesion assay buffer containing 200 μM Mn^++. Cells are counted and suspended to a density of 2×10^6/mL in adhesion assay buffer containing 200 μM Mn^++. M21 cells are pre-incubated with antagonists of αvβ3 for 30 minutes at room temperature. Following the pre-incubation, the solutions containing a mixture of cells and antagonists are added to each well of the microtiter plate and allowed to bind for 30 minutes at 37° C.
Following adhesion, plates are gently washed 3 times with 200 μL of wash buffer (50 mM Tris-HCl, 150 mM NaCl, pH 7.4) using large bore pipet tips. Plates are briefly blotted dry and 100 μL of cell lysis buffer (50 mM sodium acetate, pH 5.0, 0.5% Triton X-100, 0.3 mg/mL p-nitrophenyl phosphate [Sigma] is added to each well. Plates are incubated for 60 minutes at 37° C. and 50 μL of 1N NaOH is added to stop the reaction. The absorbance of the wells at […] is read using an automatic plate reader.

Setting [3] is: Homo sapiens, M21, read-out: M21 Melanoma Cells IC50.
Setting [4] is: Homo sapiens, M21; read-out: M21 Melanoma Cells IC50.
[5] abbreviates: trifluoroacetate salt; read-out: M21 Melanoma Cells IC50.
Where [6] appears, read: Homo sapiens, Platelet, ADP induced platelet aggregation in human platelet rich plasma.

Where a name gives a salt, the structure may show the parent alone. Read-outs that look alike come from different tables or passages of the source.

Consider `O=C(O)CC(NC(=O)CNC(=O)c1cccc(NC(=O)NCc2ccccc2)c1)c1ccccc1` (stereo not drawn) [Example 119, β-[[2-[[[3-[[[(phenylmethyl)amino]carbonyl]amino]phenyl]carbonyl]amino]acetyl]amino]benzenepropanoic acid], for which the IC50 with platelet rich plasma (Homo sapiens, Platelet) is over 20 µM; in assay [1] (read-out: IIb/IIIa IC50), 11.1 µM; in assay [2] (read-out: AvB3 IC50) it was 0.00361 µM; in the assay on M21 human melanoma cells (setting [3]), 0.0904 µM.

With `O=C(O)CC(NC(=O)CNC(=O)c1cccc(NC(=O)NCc2ccccc2)c1)c1cccnc1` (racemic) [Example 106, (±)β-[[2-[[[3-[[[(phenylmethyl)amino]carbonyl]aminophenyl]carbonyl]amino]acetyl]-amino]pyridine-3-propanoic acid], the values for the IC50 (in assay [1] (read-out: IIb/IIIa IC50); in assay [2] (read-out: AvB3 IC50); in the assay on M21 human melanoma cells (read-out: M21 Melanoma Cells IC50)) were 3.14 µM, 0.00079 µM and 0.00081 µM, respectively.

Consider `N=C(N)Nc1cccc(C(=O)NCC(=O)NCCC(=O)O)c1` [Example 97, N-[2-[[[3-[(aminoiminomethyl)amino]phenyl]carbonyl]amino]acetyl]-β-alanine], for which the IC50 in assay [1] (read-out: IIb/IIIa IC50) came to 1.17 µM; in assay [2] (read-out: AvB3 IC50), 0.0269 µM; in the assay on M21 human melanoma cells (setting [4]), 0.163 µM.

`C#C[C@@H](CC(=O)O)NC(=O)CNC(=O)c1cccc(NC(=N)N)c1` [Example 70, 3R-[[2-[[[3-[(aminoiminomethyl)amino]phenyl]carbonyl]amino]acetyl]amino]-4-pentynoic acid, trifluoroacetate salt]: the IC50 in the assay with platelet rich plasma (ADP induced platelet aggregation in human platelet rich plasma) is over 200 µM; in assay [1] (read-out: IIb/IIIa IC50) it was 3.24 µM; in assay [2] (read-out: AvB3 IC50), 0.063 µM; in the assay on M21 human melanoma cells (setting [5]) it was 0.924 µM.

With `N=C(N)Nc1cccc(C(=O)NCC(=O)NC(CC(=O)O)c2cccnc2)c1` (racemic) [Example 2, (±)β-[[2-[[[3-[(aminoiminomethyl)amino]phenyl]carbonyl]amino]acetyl]amino]pyridine-3-propanoic acid, bis(trifluoroacetate)salt], the IC50 was found to be 200 µM in the assay with platelet rich plasma (Homo sapiens, Platelet); 0.0512 µM in assay [1] (read-out: IIb/IIIa IC50); 0.00054 µM in assay [2] (read-out: AvB3 IC50); 0.00025 µM with M21 human melanoma cells (setting [3]).

As for `C#C[C@H](CC(=O)O)NC(=O)CNC(=O)c1cccc(NC(=N)N)c1` [Example 69, 3S-[[2-[[[3-[(aminoiminomethyl)amino]phenyl]carbonyl]amino]acetyl]amino]-4-pentynoic acid, trifluoroacetate salt], the IC50 in the assay with platelet rich plasma (ADP induced platelet aggregation in human platelet rich plasma, trifluoroacetate salt) was over 200 µM; in assay [1] (read-out: IIb/IIIa IC50), 0.0336 µM; in assay [2] (read-out: AvB3 IC50), 0.00092 µM; in the assay on M21 human melanoma cells (setting [5]), 0.00095 µM.

For the molecule `O=C(O)CC(NC(=O)CNC(=O)c1cccc(NC(=O)NCc2cccnc2)c1)c1cccnc1` (stereo not drawn) [Example 127, β-[[2-[[[3-[[[3-pyridinylmethyl)amino]carbonyl]amino]phenyl]carbonyl]amino]acetyl]amino]pyridine-3-propanoic acid, bis trifluoroacetate salt], the IC50 with platelet rich plasma (setting [6]) is over 200 µM; in assay [1] (read-out: IIb/IIIa IC50), 0.461 µM; in assay [2] (read-out: AvB3 IC50), 0.00051 µM.

Take `COC(=O)c1ccccc1SCCC(CC(=O)O)NC(=O)CNC(=O)c1cccc(NC(=N)N)c1` (racemic) [Example 62, (±)methyl 2-[[3-[2-[[[3-[(aminoiminomethyl)amino]phenyl]carbonyl]amino]acetyl]amino]-4-carboxybutyl]thio]benzoate, trifluoroacetate salt]: the IC50 in the assay with platelet rich plasma (setting [6]) is over 200 µM; in assay [1] (read-out: IIb/IIIa IC50), 0.0284 µM; in assay [2] (read-out: AvB3 IC50), 0.00142 µM.

For `N=C(N)Nc1cccc(C(=O)NCC(=O)N[C@H](COC(=O)c2ccccc2N)CC(=O)O)c1` [Example 94, 2S-[[2-[[[3-[[aminoiminomethyl]amino]phenyl]carbonyl]amino]acetyl]amino]-3-carboxypropyl 2-aminobenzoate, bis(trifluoroacetate)salt, monohydrate], the IC50 in the assay with platelet rich plasma (Homo sapiens, Platelet) is over 200 µM; in assay [1] (IIb/IIIa IC50) it was 0.101 µM; in assay [2] (AvB3 IC50) it was 0.00116 µM; in the assay on M21 human melanoma cells (setting [3]), 0.001 µM.

In the case of `CN/C(=N\C#N)Nc1cccc(C(=O)NCC(=O)NC(CC(=O)O)c2ccccc2)c1` (stereo not drawn) [Example 137, β-[[2-[[[3-[[(cyanoimino)(methylamino)methyl]amino]phenyl]carbonyl]amino]acetyl]amino]benzenepropanoic acid], the IC50 was over 200 µM in the assay with platelet rich plasma (setting [6]), 6.5 µM in assay [1] (read-out: IIb/IIIa IC50) and 0.0162 µM in assay [2] (read-out: AvB3 IC50).

Consider `N=C(N)Nc1cccc(C(=O)NCC(=O)NC(CC(=O)O)c2ccc(-c3ccccc3)cc2)c1` (racemic) [Example 37, (±)β-[[2-[[[3-[(aminoiminomethyl)amino]phenyl]carbonyl]amino]acetyl]amino][1,1′-biphenyl]-4-propanoic acid, trifluoroacetate salt], for which the IC50 in the assay on platelet rich plasma (setting [6]) is over 20 µM; in assay [1] (read-out: IIb/IIIa IC50), 0.0139 µM; in assay [2] (read-out: AvB3 IC50), 0.00088 µM.

Turning to `O=C(O)CCNC(=O)CNC(=O)c1cccc(NC(=O)NCc2ccccc2)c1` [Example 103, 3-[[2-[[[3-[[[(phenylmethyl)amino]carbonyl]amino]phenyl]carbonyl]amino]acetyl]amino]propanoic acid], the IC50 with platelet rich plasma (setting [6]) was over 20 µM; in assay [1] (read-out: IIb/IIIa IC50), 19.1 µM; in assay [2] (read-out: AvB3 IC50) it was 0.0166 µM.

On to `O=C(O)CC(NC(=O)CNC(=O)c1cc(NC2=NCCCCC2)cc(NC2=NCCCCC2)c1)c1cccnc1` (racemic) [Example 22, (±)β-[[2-[[[3,5-bis[(3,4,5,6-tetrahydro-2H-azepin-7-yl)amino]phenyl]carbonyl]amino]acetyl]amino]pyridine-3-propanoic acid, tris(trifluoroacetate)salt], for which the IC50 with platelet rich plasma (setting [6]) is over 200 µM; in assay [1] (read-out: IIb/IIIa IC50) it was 0.28 µM; in assay [2] (read-out: AvB3 IC50) it was 0.00137 µM.

In the case of `CCOC(=O)CC(NC(=O)CNC(=O)c1cccc(NC(=N)N)c1)c1ccccc1` (racemic) [Example 3, (±)ethyl β-[[2-[[[3-[(aminoiminomethyl)amino]phenyl]carbonyl]amino]acetyl]amino]benzenepropanoate, trifluoroacetate salt], the IC50 was 72.9 µM in assay [1] (read-out: IIb/IIIa IC50), 0.498 µM in assay [2] (read-out: AvB3 IC50) and 3.05 µM with M21 human melanoma cells (setting [4]).

Take `C#C[C@H](CC(=O)O)NC(=O)CNC(=O)c1c(F)c(F)cc(NC(=N)N)c1F` [Example 35, βS-[[2-[[[3-[(aminoiminomethyl)amino]-2,5,6-trifluorophenyl]carbonyl]amino]acetyl]amino]-4-pentynoic acid, trifluoroacetate salt]: the results for the IC50 (in the assay with platelet rich plasma (setting [6]); in assay [1] (read-out: IIb/IIIa IC50); in assay [2] (read-out: AvB3 IC50)) were 69.5 µM, 0.00621 µM and 0.0571 µM, respectively.

In the case of `C#C[C@H](CC(=O)O)NC(=O)CNC(=O)c1cccc(N/C(=N/C#N)NC)c1` [Example 141, 3S-[[2-[[[3-[[(cyanoimino)(methylamino)methyl]amino]phenyl]carbonyl]amino]acetyl]amino]-4-pentynoic acid], the IC50 is over 200 µM with platelet rich plasma (setting [6]), 0.125 µM in assay [1] (read-out: IIb/IIIa IC50) and 0.00309 µM in assay [2] (read-out: AvB3 IC50).

In the case of `N=C(N)Nc1ccc(Cl)c(C(=O)NCC(=O)NC(CC(=O)O)c2ccccc2)c1` (stereo not drawn) [Example 155, β-[[2-[[[5-[(aminoiminomethyl)amino]-2-chlorophenyl]carbonyl]amino]acetyl]amino]benzenepropanoic acid, trifluoroacete salt], the IC50 with platelet rich plasma (setting [6]) was over 200 µM; in assay [1] (read-out: IIb/IIIa IC50), 0.0811 µM; in assay [2] (read-out: AvB3 IC50), 0.00505 µM.

`C#C[C@H](CC(=O)O)NC(=O)CNC(=O)c1cccc(NC(=N)N2CCCC2)c1` [Example 34, βS-[[2-[[[3-[[imino(1-pyrrolidinyl)methyl]amino]phenyl]carbonyl]amino]acetyl]amino]-4-pentynoic acid, trifluoroacetate salt]: the IC50 with platelet rich plasma (setting [6]) is over 200 µM; in assay [1] (read-out: IIb/IIIa IC50) it was 0.269 µM; in assay [2] (read-out: AvB3 IC50), 0.0943 µM.

For the origin of these results see patent US6831199B1, “Pyrimidine compounds and derivatives thereof” (G. D. Searle & Co., priority 1995, dated 2004).
